# Experimental data as given in patent US11547681B2, “N-acylethanolamide derivatives and uses thereof” (ELIEM THERAPEUTICS, INC., priority 2016, dated 2023).
# Assay: in vitro
# Conditions: for Concentration (μM) of analyte PEA, 0 min / Concentration (μM) of analyte PEA, 10 min / Concentration (μM) of analyte PEA, 20 min / Concentration (μM) of analyte PEA, 30 min / Concentration (μM) of analyte PEA, 60 min / % Remaining of Initial (n = 1), 0 min / % Remaining of Initial (n = 1), 10 min / % Remaining of Initial (n = 1), 20 min / % Remaining of Initial (n = 1), 30 min / % Remaining of Initial (n = 1), 60 min: 1 μM; for % Remaining of Initial (n = 1), 0 min: s9, 0 h; for % Remaining of Initial (n = 1), 10 min: s9, 10 min; for % Remaining of Initial (n = 1), 20 min: s9, 20 min; for % Remaining of Initial (n = 1), 30 min: s9, 0.5 h; for % Remaining of Initial (n = 1), 60 min: s9, 1 h; for half-life at 1 μM: s9, Half-life (min)
# Summary of the method: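 Cofactor-supplemented liver S9 incubations at 37 °C contained 1 µM compound; timepoints out to 60 min, acid/organic quench, then LC-MS/MS monitoring of prodrug alongside its expected drug, PEA. Data are expressed as % remaining versus the zero-minute sample.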
compound,measurement,setting,value
CCCCCCCCCCCCCCCC(=O)NCCOC(=O)CCC(=O)OCC(O)CO (stereo not shown) [Compound I-9],"Concentration (μM) of analyte PEA, 0 min","both, human",0.35 µM
same,"Concentration (μM) of analyte PEA, 10 min","both, human",0.30 µM
same,"Concentration (μM) of analyte PEA, 20 min","both, human",0.18 µM
same,"Concentration (μM) of analyte PEA, 30 min","both, human",0.088 µM
same,"Concentration (μM) of analyte PEA, 60 min","both, human",0.028 µM
same,"% Remaining of Initial (n = 1), 0 min","both, human",100%
same,"% Remaining of Initial (n = 1), 10 min","both, human",<1.0%
same,"% Remaining of Initial (n = 1), 20 min","both, human",<1.0%
same,"% Remaining of Initial (n = 1), 30 min","both, human",<1.0%
same,"% Remaining of Initial (n = 1), 60 min","both, human",<1.0%
same,half-life at 1 μM,"both, human",< 1 min
same,"Concentration (μM) of analyte PEA, 0 min","male, Beagle, dog",0.32 µM
same,"Concentration (μM) of analyte PEA, 10 min","male, Beagle, dog",0.29 µM
same,"Concentration (μM) of analyte PEA, 20 min","male, Beagle, dog",0.21 µM
same,"Concentration (μM) of analyte PEA, 30 min","male, Beagle, dog",0.18 µM
same,"Concentration (μM) of analyte PEA, 60 min","male, Beagle, dog",0.078 µM
same,"% Remaining of Initial (n = 1), 0 min","male, Beagle, dog",100%
same,"% Remaining of Initial (n = 1), 10 min","male, Beagle, dog",<1.0%
same,"% Remaining of Initial (n = 1), 20 min","male, Beagle, dog",<1.0%
same,"% Remaining of Initial (n = 1), 30 min","male, Beagle, dog",<1.0%
same,"% Remaining of Initial (n = 1), 60 min","male, Beagle, dog",<1.0%
same,half-life at 1 μM,"male, Beagle, dog",< 1 min
same,"Concentration (μM) of analyte PEA, 0 min","male, CD-1, mouse",0.52 µM
same,"Concentration (μM) of analyte PEA, 10 min","male, CD-1, mouse",0.23 µM
same,"Concentration (μM) of analyte PEA, 20 min","male, CD-1, mouse",0.13 µM
same,"Concentration (μM) of analyte PEA, 30 min","male, CD-1, mouse",0.077 µM
same,"Concentration (μM) of analyte PEA, 60 min","male, CD-1, mouse",0.022 µM
same,"% Remaining of Initial (n = 1), 0 min","male, CD-1, mouse",100%
same,"% Remaining of Initial (n = 1), 10 min","male, CD-1, mouse",<1.0%
same,"% Remaining of Initial (n = 1), 20 min","male, CD-1, mouse",<1.0%
same,"% Remaining of Initial (n = 1), 30 min","male, CD-1, mouse",<1.0%
same,"% Remaining of Initial (n = 1), 60 min","male, CD-1, mouse",<1.0%
same,half-life at 1 μM,"male, CD-1, mouse",< 1 min
same,"Concentration (μM) of analyte PEA, 0 min","male, Sprague-Dawley, rat",0.20 µM
same,"Concentration (μM) of analyte PEA, 10 min","male, Sprague-Dawley, rat",0.31 µM
same,"Concentration (μM) of analyte PEA, 20 min","male, Sprague-Dawley, rat",0.18 µM
same,"Concentration (μM) of analyte PEA, 30 min","male, Sprague-Dawley, rat",0.11 µM
same,"Concentration (μM) of analyte PEA, 60 min","male, Sprague-Dawley, rat",0.029 µM
same,"% Remaining of Initial (n = 1), 0 min","male, Sprague-Dawley, rat",100%
same,"% Remaining of Initial (n = 1), 10 min","male, Sprague-Dawley, rat",13%
same,"% Remaining of Initial (n = 1), 20 min","male, Sprague-Dawley, rat",2.1%
same,"% Remaining of Initial (n = 1), 30 min","male, Sprague-Dawley, rat",<1.0%
same,"% Remaining of Initial (n = 1), 60 min","male, Sprague-Dawley, rat",<1.0%
CCCCCCCCCCCCCCCC(=O)NCCOC(=O)CCC(=O)OCC(COC(=O)CCC)OC(=O)CCC (stereo not shown) [Compound I-11],"Concentration (μM) of analyte PEA, 0 min","both, human",0.047 µM
same,"Concentration (μM) of analyte PEA, 10 min","both, human",0.25 µM
same,"Concentration (μM) of analyte PEA, 20 min","both, human",0.18 µM
same,"Concentration (μM) of analyte PEA, 30 min","both, human",0.14 µM
same,"Concentration (μM) of analyte PEA, 60 min","both, human",0.033 µM
same,"% Remaining of Initial (n = 1), 0 min","both, human",100%
same,"% Remaining of Initial (n = 1), 10 min","both, human",2.8%
same,"% Remaining of Initial (n = 1), 20 min","both, human",<1.0%
same,"% Remaining of Initial (n = 1), 30 min","both, human",<1.0%
same,"% Remaining of Initial (n = 1), 60 min","both, human",<1.0%
same,"Concentration (μM) of analyte PEA, 0 min","male, Beagle, dog",0.069 µM
same,"Concentration (μM) of analyte PEA, 10 min","male, Beagle, dog",0.51 µM
same,"Concentration (μM) of analyte PEA, 20 min","male, Beagle, dog",0.34 µM
same,"Concentration (μM) of analyte PEA, 30 min","male, Beagle, dog",0.29 µM
same,"Concentration (μM) of analyte PEA, 60 min","male, Beagle, dog",0.13 µM
same,"% Remaining of Initial (n = 1), 0 min","male, Beagle, dog",100%
same,"% Remaining of Initial (n = 1), 10 min","male, Beagle, dog",4.6%
same,"% Remaining of Initial (n = 1), 20 min","male, Beagle, dog",1.6%
same,"% Remaining of Initial (n = 1), 30 min","male, Beagle, dog",<1.0%
same,"% Remaining of Initial (n = 1), 60 min","male, Beagle, dog",<1.0%
same,"Concentration (μM) of analyte PEA, 0 min","male, CD-1, mouse",0.18 µM
same,"Concentration (μM) of analyte PEA, 10 min","male, CD-1, mouse",0.24 µM
same,"Concentration (μM) of analyte PEA, 20 min","male, CD-1, mouse",0.13 µM
same,"Concentration (μM) of analyte PEA, 30 min","male, CD-1, mouse",0.083 µM
same,"Concentration (μM) of analyte PEA, 60 min","male, CD-1, mouse",0.015 µM
same,"% Remaining of Initial (n = 1), 0 min","male, CD-1, mouse",100%
same,"% Remaining of Initial (n = 1), 10 min","male, CD-1, mouse",<1.0%
same,"% Remaining of Initial (n = 1), 20 min","male, CD-1, mouse",<1.0%
same,"% Remaining of Initial (n = 1), 30 min","male, CD-1, mouse",<1.0%
same,"% Remaining of Initial (n = 1), 60 min","male, CD-1, mouse",<1.0%
same,half-life at 1 μM,"male, CD-1, mouse",< 1 min
same,"Concentration (μM) of analyte PEA, 0 min","male, Sprague-Dawley, rat",0 µM
same,"Concentration (μM) of analyte PEA, 10 min","male, Sprague-Dawley, rat",0.14 µM
same,"Concentration (μM) of analyte PEA, 20 min","male, Sprague-Dawley, rat",0.091 µM
same,"Concentration (μM) of analyte PEA, 30 min","male, Sprague-Dawley, rat",0.059 µM
same,"Concentration (μM) of analyte PEA, 60 min","male, Sprague-Dawley, rat",0.0062 µM
same,"% Remaining of Initial (n = 1), 0 min","male, Sprague-Dawley, rat",100%
same,"% Remaining of Initial (n = 1), 10 min","male, Sprague-Dawley, rat",<1.0%
same,"% Remaining of Initial (n = 1), 20 min","male, Sprague-Dawley, rat",<1.0%
same,"% Remaining of Initial (n = 1), 30 min","male, Sprague-Dawley, rat",<1.0%
same,"% Remaining of Initial (n = 1), 60 min","male, Sprague-Dawley, rat",<1.0%
same,half-life at 1 μM,"male, Sprague-Dawley, rat",< 1 min
